According to a melting point compilation (Tetko et al.; mined from patent text by program, amines drawn as free bases though some values may be those of a salt):

**Q.** With `CC(=O)NCc1ccc(CN2CCN(c3nc(C)cc(C)n3)CC2)cc1` as the compound, how does the melting point read?
**A.** 127 to 128 °C

**Q.** With `CCC1(O)CCC2C3CCC4=C(CC=C(OC)C4)C3CCC21C` (stereo not given) as the compound, how does the melting point read?
**A.** 131 to 134 °C

**Q.** With `CC(C)(C)c1cc(C=C2CCNC2=O)cc(C(C)(C)C)c1O` as the compound, how does the melting point read?
**A.** 216 to 218 °C

**Q.** Which melting point does the source give for `O=C1Cn2c(c(Br)c3ccccc32)-c2ccccc2N1` here?
**A.** 247 to 249 °C

**Q.** With `CC1(C)C(=O)Nc2cc3[nH]c(C(F)(F)F)nc3cc21` as the compound, how does the melting point read?
**A.** 175 to 177 °C

**Q.** For `CCCCCCCCCCCCCCCCOCC(CO)COC(c1ccccc1)(c1ccccc1)c1ccccc1` (stereo not given), which melting point is on record?
**A.** 38 °C

**Q.** Which melting point does the source give for `O=C(O)c1nc(N2CCCC2)ccc1OCc1ccccc1` here?
**A.** 120 to 122 °C

**Q.** With `NC(=O)c1cc2ccccc2cc1O` as the compound, how does the melting point read?
**A.** 216 to 217 °C

**Q.** Which melting point does the source give for `CN(C)c1nc(Br)cnc1N` here?
**A.** 145 °C

**Q.** With `CN1Cc2c(C(=O)OC3CCCCC3)ncn2-c2cccc(Cl)c2C1=O` as the compound, how does the melting point read?
**A.** 208 to 209 °C

**Q.** With `CC1(C)CC(=O)C(C(=O)Nc2ccc(C(F)(F)F)cc2)C(=O)O1` (stereo not given) as the compound, how does the melting point read?
**A.** 176 °C

**Q.** With `O=c1[nH]c2ccc(S(=O)CCN3CCC(Cc4ccccc4F)CC3)cc2o1` (stereo not given) as the compound, how does the melting point read?
**A.** 179 to 181 °C

**Q.** For `O=C1CCN(Cc2ccccc2)C(=O)C1=C1SC=CS1`, which melting point is on record?
**A.** 122 to 124 °C

**Q.** For `COC(=O)c1ccc(Cc2cc3cc(C(F)(F)F)ccc3n2S(=O)(=O)c2ccc3c(c2)N(C)CCO3)cc1`, which melting point is on record?
**A.** 63 °C

**Q.** With `Nc1cc(OCC2CCCCO2)c(C(=O)O)cc1Cl` (stereo not given) as the compound, how does the melting point read?
**A.** 146 to 148 °C

**Q.** Which melting point does the source give for `CC(=O)OCc1ccc2oc(=O)c(C(=O)Oc3cc(Cl)cc(Cl)c3)cc2c1` here?
**A.** 146 to 150 °C

**Q.** With `COc1cc(C2=CCCCC2)c(Cl)cc1C(=O)N1Cc2ccc(C(=O)N(C)CCCN(C)C)n2Cc2ccccc21` as the compound, how does the melting point read?
**A.** 116 to 119 °C

**Q.** For `Cc1ccc(C)c(S(=O)(=O)N(C)CC(O)(CO)c2ccccc2)c1` (stereo not given), which melting point is on record?
**A.** 114 to 115 °C

**Q.** For `CCN1c2ncc(C#Cc3ccccc3)cc2C(=O)N(C)c2cccnc21`, which melting point is on record?
**A.** 228 to 229 °C

**Q.** For `CCCCN(C(=O)C(C)C)c1ccc(-c2ccccc2)o1`, which melting point is on record?
**A.** 87 °C

**Q.** Which melting point does the source give for `Cc1cc(C)c(S(=O)(=O)N=[N+]=[N-])c(C)c1S(=O)(=O)N=[N+]=[N-]` here?
**A.** 54 to 56 °C

**Q.** For `OCCOCc1nnc2n1-c1ccc(Cl)cc1C(c1ccccc1)=NC2`, which melting point is on record?
**A.** 162 to 164 °C

**Q.** Which melting point does the source give for `Cc1ccc2c(c1C)OCC2c1ccc(C(C)C)cc1` (stereo not given) here?
**A.** 50 to 51 °C

**Q.** With `CN(C)C(=O)n1nc(N(C)C)c2ccc(Cl)cc21` as the compound, how does the melting point read?
**A.** 65 to 66 °C

**Q.** With `CCc1ccc(Nc2nc3cc([N+](=O)[O-])ccc3o2)cc1` as the compound, how does the melting point read?
**A.** 172 to 173 °C

**Q.** Which melting point does the source give for `CN(c1ccc(OCc2ccc(OC(F)(F)F)cc2)cc1)C1CCN(c2ccc(OC[C@H]3CCn4cc([N+](=O)[O-])nc4O3)cc2)CC1` here?
**A.** 142 to 144 °C

**Q.** With `COC(=O)CCCCCNC(=O)C(CSC(C)=O)Cc1ccccc1` (stereo not given) as the compound, how does the melting point read?
**A.** 50 to 54 °C

**Q.** For `CCCOc1ccc(Br)c(C(=O)C=Cc2ccc3c(c2)OCO3)c1`, which melting point is on record?
**A.** 80 to 82 °C

**Q.** Which melting point does the source give for `CCCCc1nnc2c(Cl)nc3ccccc3n12` here?
**A.** 144 to 146 °C

**Q.** With `C=CCOC(=O)c1c(C)c(OC)cc(O[Si](C)(C)C(C)(C)C)c1C=O` as the compound, how does the melting point read?
**A.** 94 to 95 °C

**Q.** For `COc1ccc(-c2nc3ccc(C(C)(C)CNC(=O)C(C)C)cc3[nH]2)cc1`, which melting point is on record?
**A.** 218 to 220 °C

**Q.** For `CCOC(=O)c1cnc2sc(C)c(C)n12`, which melting point is on record?
**A.** 60 to 61 °C

**Q.** With `Cn1cc(C(=O)NCc2ccc(Cl)cc2)c(=O)c2cc(C#CCO)cc(F)c21` as the compound, how does the melting point read?
**A.** 186 to 188 °C

**Q.** For `CCOC(=O)c1ccc(NCCCCCCCc2ccccc2)cc1`, which melting point is on record?
**A.** 65 to 67 °C

**Q.** Which melting point does the source give for `Cc1nn(C)c(C2=NCCN2)c1[N+](=O)[O-]` here?
**A.** 143 to 145 °C

**Q.** Which melting point does the source give for `CC1(C)OC(c2ccc(S(C)(=O)=O)cc2)=C(c2cccc(C(F)(F)F)c2)C1=O` here?
**A.** 115 to 116 °C

**Q.** For `O=C1CCCC2=C1C(c1ccncc1)C1=C(CCS1)N2` (stereo not given), which melting point is on record?
**A.** > 250 °C

**Q.** For `CNC(=C[N+](=O)[O-])NCCCOc1cccc(CCCN(C)C)c1`, which melting point is on record?
**A.** 59.5 to 61 °C

**Q.** Which melting point does the source give for `CCOC(=O)C(=NOC)c1csc2cc(F)ccc12` here?
**A.** 84.5 to 86 °C

**Q.** With `COc1ccc(C=CC(=O)C2C(=O)CCC2=O)cc1O` as the compound, how does the melting point read?
**A.** 61 to 62 °C

**Q.** For `CS(=O)(=O)c1ccc(C2=C(c3ccccc3)C(=NOCc3ccccc3)C2)cc1`, which melting point is on record?
**A.** 148 to 150 °C

**Q.** Which melting point does the source give for `CC(C(=O)O)c1ccc2cc(OCc3csc(-c4ccccc4)n3)ccc2c1` (stereo not given) here?
**A.** 163 to 164 °C

**Q.** Which melting point does the source give for `Cn1cc(C(=O)NCc2ccc(Cl)cc2)c(=O)c2cc(C#CCO)sc21` here?
**A.** 206 to 208 °C

**Q.** Which melting point does the source give for `O=C(c1cc(Cl)c(Cl)cc1NS(=O)(=O)c1cccc2nsnc12)N1CCCCC1` here?
**A.** 178 to 179 °C

**Q.** Which melting point does the source give for `CC1CCn2c(c(-c3ccccc3)c3cccnc3c2=O)C(=O)N(Cc2cc(C(F)(F)F)cc(C(F)(F)F)c2)C1` (racemic) here?
**A.** 257 to 258 °C

**Q.** For `Cc1nc(C(=O)c2ccc(Cl)cc2)sc1C`, which melting point is on record?
**A.** 97 °C

**Q.** Which melting point does the source give for `CC(C(=O)c1ccc(OC2CCCCO2)cc1)c1ccccc1` (stereo not given) here?
**A.** 94 to 96 °C

**Q.** Which melting point does the source give for `CCSc1ccc(Cl)nc1C#N` here?
**A.** 79 to 81 °C

**Q.** With `CCN1c2ccccc2NC(=O)c2cscc21` as the compound, how does the melting point read?
**A.** 201 to 202 °C

**Q.** Which melting point does the source give for `COc1ccc2c(c1)Nc1[nH]cnc(=O)c1C2` here?
**A.** > 300 °C
